In US20160158179A1, “NANOEMULSION THERAPEUTIC COMPOSITIONS AND METHODS OF USING THE SAME” (THE REGENTS OF THE UNIVERSITY OF MICHIGAN, priority 2008, published 2016):
Values after ≈ are worked out from the molar mass of the structure shown.

Legend:
[1] = test system: H. influenzae clinical isolates; experiment: MIC and MBC susceptibility assays (CLSI); type: cell-based, Haemophilus influenzae; settings: for MIC 50: Haemophilus influenzae, all H. influenzae strains of Table 6, control antibiotics
[2] = test system: H. influenzae clinical isolates; settings: ATCC H. influenzae 49247 quality control isolate; acceptable QC range; cited from earlier work
[3] = test system: Stenotrophomonas maltophilia; experiment: MIC and MBC determination (CLSI, alamar blue), CF isolates; settings: Stenotrophomonas
Burkholderia cenocepacia = experiment: as above
Acinetobacter baumannii = experiment: MIC and MBC determination (CLSI, alamar blue); settings: Acinetobacter
Pseudomonas aeruginosa = experiment: MIC and MBC determination (CLSI, alamar blue), CF isolates; settings: Pseudomonas
[4] = test system: methicillin-resistant Staphylococcus aureus (MRSA) clinical isolates; experiment: MIC and MBC susceptibility assays (CLSI); type: cell-based; settings: for MIC50 (15): value at rank 15 of 29; for MIC50(26): value at rank 26 of 29
[5] = test system: Pseudomonas, Burkholderia, Acinetobacter and Stenotrophomonas; experiment: MIC and MBC determination (CLSI, alamar blue), all strains of Example 8
Acinetobacter strains = experiment: Checkerboard synergy study (FIC/FBC index); type: cell-based, Acinetobacter baumannii; settings: in combination with P4075EC+EDTA
Burkholderia strains = experiment: Checkerboard synergy study (FIC/FBC index); type: cell-based, Burkholderia cenocepacia; settings: in combination with P4075EC+EDTA
Stenotrophomonas strains = experiment: Checkerboard synergy study (FIC/FBC index); type: cell-based, Stenotrophomonas maltophilia; settings: in combination with P4075EC+EDTA
[6] = share of 10 Acinetobacter strains with synergy
[7] = share of 10 Burkholderia strains with synergy
[8] = share of 10 Stenotrophomonas strains with synergy
[9] = MBC analysis table, silver nitrate column

CC1(C)S[C@@H]2[C@H](NC(=O)[C@H](N)c3ccccc3)C(=O)N2[C@H]1C(=O)O [Amp, ampicillin]
MIC 50 [1]: > 32 µg/mL | QC MIC range [2]: B (QC MIC range is 2-8) μg/ml

CC[C@H]1OC(=O)[C@H](C)[C@@H](O[C@H]2C[C@@](C)(OC)[C@@H](O)[C@H](C)O2)[C@H](C)[C@@H](O[C@@H]2O[C@H](C)C[C@H](N(C)C)[C@H]2O)[C@](C)(O)C[C@@H](C)CN(C)[C@H](C)[C@@H](O)[C@]1(C)O [Azi, azithromycin]
susceptibility of the majority of isolates by MIC90 values [1]: susceptible | MIC 50 [1]: 2 µg/mL (≈ 2.67 µM) | QC MIC range [2]: A (QC MIC range is 1-4) μg/ml

CO[C@@]1(NC(=O)Cc2cccs2)C(=O)N2C(C(=O)O)=C(COC(N)=O)CS[C@@H]21 [Cefoxitin]
MIC 50 [3]: >256 µg/mL | MIC 90 [3]: >256 µg/mL | MIC 90 (Burkholderia cenocepacia; Burkholderia): 256 µg/mL (≈ 599 µM) | MIC 50 (Acinetobacter baumannii): >256 µg/mL | MIC 90 (Acinetobacter baumannii): >256 µg/mL | MIC 50 (Pseudomonas aeruginosa): >256 µg/mL | MIC 90 (Pseudomonas aeruginosa): >256 µg/mL

CC(C)(O/N=C(\C(=O)N[C@@H]1C(=O)N2C(C(=O)[O-])=C(C[n+]3ccccc3)CS[C@H]12)c1csc(N)n1)C(=O)O [Ceftazidime]
MIC 50 [3]: >32 µg/mL | MIC 90 [3]: >32 µg/mL | MIC 90 (Burkholderia cenocepacia; Burkholderia): 16 µg/mL (≈ 29.3 µM) | MIC 50 (Burkholderia cenocepacia; Burkholderia cenocepacia): 8 µg/mL (≈ 14.6 µM) | MIC 90 (Burkholderia cenocepacia; Burkholderia cenocepacia): 16 µg/mL (≈ 29.3 µM) | MIC 50 (Acinetobacter baumannii): >32 µg/mL | MIC 90 (Acinetobacter baumannii): >32 µg/mL

CCC[C@@H]1C[C@@H](C(=O)N[C@@H]([C@H]2O[C@H](SC)[C@H](O)[C@@H](O)[C@H]2O)[C@H](C)Cl)N(C)C1 [Cli, clindamycin]
MIC 50 [1]: 16 µg/mL (≈ 37.6 µM)

C[C@H]1c2cccc(O)c2C(O)=C2C(=O)[C@]3(O)C(O)=C(C(N)=O)C(=O)[C@@H](N(C)C)[C@@H]3[C@@H](O)[C@@H]21 [Dox]
MIC50 (15) ([4]; MRSA clinical isolates): 0.25 µg/mL (≈ 0.563 µM)

CC[C@H]1OC(=O)[C@H](C)[C@@H](O[C@H]2C[C@@](C)(OC)[C@@H](O)[C@H](C)O2)[C@H](C)[C@@H](O[C@@H]2O[C@H](C)C[C@H](N(C)C)[C@H]2O)[C@](C)(O)C[C@@H](C)C(=O)[C@H](C)[C@@H](O)[C@]1(C)O [Eryth]
MIC50 (15) ([4]; MRSA clinical isolates): 64 µg/mL (≈ 87.2 µM)

C[C@@H](O)[C@H]1C(=O)N2C(C(=O)O)=C(SCCN=CN)C[C@H]12 [Imipenem]
MIC 50 [3]: >32 µg/mL | MIC 90 [5]: ≥ 2 µg/mL

C[C@H]1COc2c(N3CCN(C)CC3)c(F)cc3c(=O)c(C(=O)O)cn1c23 [Levo]
MIC50 (15) ([4]; MRSA clinical isolates): 8 µg/mL (≈ 22.1 µM)

C[C@H]1COc2c(N3CCN(C)CC3)c(F)cc3c(=O)c(C(=O)O)cn1c23 [Levofloxacin]
MIC 50 [3]: 2 µg/mL (≈ 5.53 µM) | MIC 90 [3]: 8 µg/mL (≈ 22.1 µM) | MIC 90 (Burkholderia cenocepacia; Burkholderia): 8 µg/mL (≈ 22.1 µM) | MIC 50 (Burkholderia cenocepacia; Burkholderia cenocepacia): 2 µg/mL (≈ 5.53 µM) | MIC 90 (Burkholderia cenocepacia; Burkholderia cenocepacia): 8 µg/mL (≈ 22.1 µM) | MIC 50 (Acinetobacter baumannii): 16 µg/mL (≈ 44.3 µM) | MIC 90 (Acinetobacter baumannii): >16 µg/mL | MIC 50 (Pseudomonas aeruginosa): 0.5 µg/mL (≈ 1.38 µM) | MIC 90 (Pseudomonas aeruginosa): 8 µg/mL (≈ 22.1 µM)

Cc1onc(-c2ccccc2)c1C(=O)N[C@@H]1C(=O)N2[C@@H]1SC(C)(C)[C@@H]2C(=O)O [Ox]
MIC50 (15) ([4]; MRSA clinical isolates): >16 µg/mL

CN(C)[C@@H]1C(O)=C(C(N)=O)C(=O)[C@@]2(O)C(O)=C3C(=O)c4c(O)cccc4[C@@](C)(O)[C@H]3C[C@@H]12 [Tetracycline]
MIC 50 [1]: 2 µg/mL (≈ 4.5 µM)

NC[C@H]1O[C@H](O[C@H]2[C@H](O)[C@@H](O[C@H]3O[C@H](CO)[C@@H](O)[C@H](N)[C@H]3O)[C@H](N)C[C@@H]2N)[C@H](N)C[C@@H]1O [Tobra]
FBC (Acinetobacter strains; isolate NB31): 1.50 | FIC (Acinetobacter strains; isolate NB31): 0.98 | Synergy (FBC) (Acinetobacter strains; isolate NB31): no | Synergy (FIC) (Acinetobacter strains; isolate NB31): indifferent | FBC (Acinetobacter strains; isolate NB32): 1.79 | FIC (Acinetobacter strains; isolate NB32): 0.88 | Synergy (FBC) (Acinetobacter strains; isolate NB32): no | Synergy (FIC) (Acinetobacter strains; isolate NB32): indifferent | FBC (Acinetobacter strains; isolate NB33): 1.75 | FIC (Acinetobacter strains; isolate NB33): 1.27 | Synergy (FBC) (Acinetobacter strains; isolate NB33): no | Synergy (FIC) (Acinetobacter strains; isolate NB33): indifferent | FBC (Acinetobacter strains; isolate NB34): 0.24 | FIC (Acinetobacter strains; isolate NB34): 0.41 | Synergy (FBC) (Acinetobacter strains; isolate NB34): yes | Synergy (FIC) (Acinetobacter strains; isolate NB34): yes | FBC (Acinetobacter strains; isolate NB35): 1.44 | FIC (Acinetobacter strains; isolate NB35): 1.21 | Synergy (FBC) (Acinetobacter strains; isolate NB35): no | Synergy (FIC) (Acinetobacter strains; isolate NB35): indifferent | FIC (Acinetobacter strains; isolate NB36): 3.30 | Synergy (FBC) (Acinetobacter strains; isolate NB36): no | Synergy (FIC) (Acinetobacter strains; isolate NB36): indifferent | FBC (Acinetobacter strains; isolate NB37): 1.72 | FIC (Acinetobacter strains; isolate NB37): 0.75 | Synergy (FBC) (Acinetobacter strains; isolate NB37): no | Synergy (FIC) (Acinetobacter strains; isolate NB37): indifferent | FIC (Acinetobacter strains; isolate NB38): 1.05 | Synergy (FBC) (Acinetobacter strains; isolate NB38): no | Synergy (FIC) (Acinetobacter strains; isolate NB38): indifferent | FBC (Acinetobacter strains; isolate NB39): 3.52 | FIC (Acinetobacter strains; isolate NB39): 3.30 | Synergy (FBC) (Acinetobacter strains; isolate NB39): no | Synergy (FIC) (Acinetobacter strains; isolate NB39): indifferent | FBC (Acinetobacter strains; isolate NB40): 3.01 | FIC (Acinetobacter strains; isolate NB40): 3.01 | Synergy (FBC) (Acinetobacter strains; isolate NB40): no | Synergy (FIC) (Acinetobacter strains; isolate NB40): indifferent | % FBC Synergy (Acinetobacter strains; [6]): 10% | % FIC Synergy (Acinetobacter strains; [6]): 10% | FBC (Burkholderia strains; isolate NB21): 0.48 | FIC (Burkholderia strains; isolate NB21): 0.27 | Synergy (FBC) (Burkholderia strains; isolate NB21): yes | Synergy (FIC) (Burkholderia strains; isolate NB21): yes | FIC (Burkholderia strains; isolate NB22): 0.35 | Synergy (FBC) (Burkholderia strains; isolate NB22): indifferent | Synergy (FIC) (Burkholderia strains; isolate NB22): yes | Synergy (FBC) (Burkholderia strains; isolate NB23): indifferent | Synergy (FIC) (Burkholderia strains; isolate NB23): indifferent | Synergy (FBC) (Burkholderia strains; isolate NB24): indifferent | Synergy (FIC) (Burkholderia strains; isolate NB24): indifferent | FBC (Burkholderia strains; isolate NB25): 0.99 | Synergy (FBC) (Burkholderia strains; isolate NB25): indifferent | Synergy (FIC) (Burkholderia strains; isolate NB25): indifferent | FBC (Burkholderia strains; isolate NB26): 0.92 | FIC (Burkholderia strains; isolate NB26): 0.12 | Synergy (FBC) (Burkholderia strains; isolate NB26): indifferent | Synergy (FIC) (Burkholderia strains; isolate NB26): yes | Synergy (FBC) (Burkholderia strains; isolate NB27): indifferent | Synergy (FIC) (Burkholderia strains; isolate NB27): indifferent | FIC (Burkholderia strains; isolate NB28b): 0.54 | Synergy (FBC) (Burkholderia strains; isolate NB28b): indifferent | Synergy (FIC) (Burkholderia strains; isolate NB28b): yes | FBC (Burkholderia strains; isolate NB29): 0.07 | FIC (Burkholderia strains; isolate NB29): 0.32 | Synergy (FBC) (Burkholderia strains; isolate NB29): yes | Synergy (FIC) (Burkholderia strains; isolate NB29): yes | FBC (Burkholderia strains; isolate NB30): 0.54 | FIC (Burkholderia strains; isolate NB30): 0.27 | Synergy (FBC) (Burkholderia strains; isolate NB30): yes | Synergy (FIC) (Burkholderia strains; isolate NB30): yes | % FBC Synergy (Burkholderia strains; [7]): 30% | % FIC Synergy (Burkholderia strains; [7]): 50% | FIC (Stenotrophomonas strains; isolate NB42): 0.14 | Synergy (FBC) (Stenotrophomonas strains; isolate NB42): indifferent | Synergy (FIC) (Stenotrophomonas strains; isolate NB42): yes | FIC (Stenotrophomonas strains; isolate NB43): 1.40 | Synergy (FBC) (Stenotrophomonas strains; isolate NB43): indifferent | Synergy (FIC) (Stenotrophomonas strains; isolate NB43): indifferent | FIC (Stenotrophomonas strains; isolate NB44): 1.5 | Synergy (FBC) (Stenotrophomonas strains; isolate NB44): indifferent | Synergy (FIC) (Stenotrophomonas strains; isolate NB44): indifferent | FBC (Stenotrophomonas strains; isolate NB45): 1.50 | FIC (Stenotrophomonas strains; isolate NB45): 0.97 | Synergy (FBC) (Stenotrophomonas strains; isolate NB45): indifferent | Synergy (FIC) (Stenotrophomonas strains; isolate NB45): indifferent | % FBC Synergy (Stenotrophomonas strains; [8]): 0% | % FIC Synergy (Stenotrophomonas strains; [8]): 20%

CN[C@H](CC(C)C)C(=O)N[C@H]1C(=O)N[C@@H](CC(N)=O)C(=O)N[C@H]2C(=O)N[C@H]3C(=O)N[C@H](C(=O)N[C@H](C(=O)O)c4cc(O)cc(O)c4-c4cc3ccc4O)[C@H](O)c3ccc(c(Cl)c3)Oc3cc2cc(c3O[C@@H]2O[C@H](CO)[C@@H](O)[C@H](O)[C@H]2O[C@H]2C[C@](C)(N)[C@H](O)[C@H](C)O2)Oc2ccc(cc2Cl)[C@H]1O [Vanco]
MIC50 (15) ([4]; MRSA clinical isolates): 1 µg/mL (≈ 0.69 µM)

CCC[C@@H]1C[C@@H](C(=O)N[C@@H]([C@H]2O[C@H](SC)[C@H](O)[C@@H](O)[C@H]2O)[C@H](C)Cl)N(C)C1 [clind]
MIC50 (15) ([4]; MRSA clinical isolates): >64 µg/mL

C[C@H]1c2cccc(O)c2C(O)=C2C(=O)[C@]3(O)C(O)=C(C(N)=O)C(=O)[C@@H](N(C)C)[C@@H]3[C@@H](O)[C@@H]21 [doxycyline, doxycycline]
MIC 90 ([4]; clinical isolates of MRSA): 4 µg/mL (≈ 9 µM)

O=[N+]([O-])[O-].[Ag+] [silver nitrate]
MIC50 (15) [4, 9]: 0.0025 µg/mL | MIC50(26) [4, 9]: >0.01 µg/mL | MIC 90 ([4]; clinical isolates of MRSA): 0.00063% | MIC50 (15) ([4]; silver nitrate column): 0.00031 µg/mL | MIC50(26) ([4]; silver nitrate column): 0.00063 µg/mL

CN[C@H](CC(C)C)C(=O)N[C@H]1C(=O)N[C@@H](CC(N)=O)C(=O)N[C@H]2C(=O)N[C@H]3C(=O)N[C@H](C(=O)N[C@H](C(=O)O)c4cc(O)cc(O)c4-c4cc3ccc4O)[C@H](O)c3ccc(c(Cl)c3)Oc3cc2cc(c3O[C@@H]2O[C@H](CO)[C@@H](O)[C@H](O)[C@H]2O[C@H]2C[C@](C)(N)[C@H](O)[C@H](C)O2)Oc2ccc(cc2Cl)[C@H]1O [vancomycin]
bactericidal activity (MBC90 compared to MIC90) ([4]; clinical isolates of MRSA): bactericidal
